According to patent publication EP0908457B1, “3-(1,2-benzisothiazol- and isoxazol-5-Y1)-2,4(1H,3H)-pyrimidinedione or thione and 3-(1,2-benzisothiazol- and isoxazol-5-y1)-4(3H)-pyrimidinone or thione herbicidal agents” (BASF AKTIENGESELLSCHAFT, priority 1997, dated 1999):

Key:
[1] = system: Echinochloa oryzoides (Ard.) Fritsch.; test: Preemergence weed control under flooded paddy conditions, ECHORC (Watergrass (Calif.)); format: in vivo; conditions: flooded paddy, rated three to four weeks after treatment; for herbicidal effect rating, ECHORC: meaning of each grade not given here
Cyperus iria = test: Preemergence weed control under flooded paddy conditions, CYPIR (Rice Flatsedge); format: in vivo; conditions: flooded paddy, rated three to four weeks after treatment; for herbicidal effect rating, CYPIR: meaning of each grade not given here
[2] = system: Cyperus serotinus, Rottb.; test: Preemergence weed control under flooded paddy conditions, CYPSE (Flatsedge); format: in vivo; conditions: rated three to four weeks after treatment; for herbicidal effect rating, CYPSE: meaning of each grade not given here
[3] = system: Monochoria vaginalis, Presl.; test: Preemergence weed control under flooded paddy conditions, MOOVA (Monochoria); format: in vivo; conditions: flooded paddy, rated three to four weeks after treatment; for herbicidal effect rating, MOOVA: meaning of each grade not given here
Sagittaria pygmaea, L. = test: Preemergence weed control under flooded paddy conditions, SAGPY (Arrowhead (Pygmaea)); format: in vivo; conditions: flooded paddy, rated three to four weeks after treatment; for herbicidal effect rating, SAGPY: meaning of each grade not given here
[4] = system: Oryza sativa, (L.) Tebonnet; test: Rice tolerance to post-transplant applications under flooded paddy conditions (Example 187), ORYSAT (Rice, Tebonnet); conditions: rated three to four weeks after treatment; for herbicidal effect rating ORYSAT: meaning of each grade not given here
[5] = Rate 0.0320 kg/ha, preemergence weeds
[6] = Rate 0.0620 kg/ha, preemergence weeds
[7] = Rate 0.1250 kg/ha, preemergence weeds
[8] = Rate 0.2500 kg/ha, preemergence weeds
[9] = Rate 0.0320 kg/ha, preemergence
[10] = Rate 0.0620 kg/ha, preemergence
[11] = Rate 0.1250 kg/ha, preemergence
[12] = Rate 0.2500 kg/ha, preemergence
[13] = Rate 0.5000 kg/ha, preemergence

C=CCOc1c(I)cc(C)cc1-c1nsc2ccc(-n3c(=O)cc(C(F)(F)F)n(C)c3=O)cc12 [Example 505, 2,4(1H,3H)-Pyrimidinedione, 3-{3-[6-(allyloxy)-5-iodo-m-tolyl]-1,2-benzisothiazol-5-yl}-1-methyl-6-(trifluoromethyl)-]
ECHORC herbicidal rating ([1]; 0.0320 kg/ha, preemergence): 6.0 | ECHORC herbicidal rating ([1]; 0.0620 kg/ha, preemergence): 6.0 | ECHORC herbicidal rating ([1]; 0.1250 kg/ha, preemergence): 7.0 | ECHORC herbicidal rating ([1]; 0.2500 kg/ha, preemergence): 9.0 | CYPIR herbicidal rating (Cyperus iria; 0.0320 kg/ha, preemergence): 0.0 | CYPIR herbicidal rating (Cyperus iria; 0.1250 kg/ha, preemergence): 3.0 | CYPIR herbicidal rating (Cyperus iria; 0.2500 kg/ha, preemergence): 4.0 | CYPSE herbicidal rating ([2]; 0.0620 kg/ha, preemergence): 0.0 | CYPSE herbicidal rating ([2]; 0.1250 kg/ha, preemergence): 0.0 | MOOVA herbicidal rating ([3]; 0.0320 kg/ha, preemergence): 7.0 | MOOVA herbicidal rating ([3]; 0.0620 kg/ha, preemergence): 7.0 | MOOVA herbicidal rating ([3]; 0.1250 kg/ha, preemergence): 7.0 | MOOVA herbicidal rating ([3]; 0.2500 kg/ha, preemergence): 8.0 | SAGPY herbicidal rating (Sagittaria pygmaea, L.; 0.0320 kg/ha, preemergence): 0.0 | SAGPY herbicidal rating (Sagittaria pygmaea, L.; 0.0620 kg/ha, preemergence): 2.0 | SAGPY herbicidal rating (Sagittaria pygmaea, L.; 0.1250 kg/ha, preemergence): 2.0 | SAGPY herbicidal rating (Sagittaria pygmaea, L.; 0.2500 kg/ha, preemergence): 4.0 | ORYSAT herbicidal rating (rice tolerance) ([4]; 0.0320 kg/ha): 4.0 | ORYSAT herbicidal rating (rice tolerance) ([4]; 0.0620 kg/ha): 4.0 | ORYSAT herbicidal rating (rice tolerance) ([4]; 0.1250 kg/ha): 4.0 | ORYSAT herbicidal rating (rice tolerance) ([4]; 0.2500 kg/ha): 6.0

COCOCc1nsc2ccc(-n3c(=O)cc(C(F)(F)F)n(C)c3=O)cc12 [Example 478, 2,4(1H,3H)-Pyrimidinedione, 3-{3-[(methoxymethoxy)methyl]-1,2-benzisothiazol-5-yl}-1-methyl-6-(trifluoromethyl)-]
ECHORC herbicidal rating ([1]; 0.0320 kg/ha, preemergence): 4.0 | ECHORC herbicidal rating ([1]; 0.0620 kg/ha, preemergence): 6.0 | ECHORC herbicidal rating ([1]; 0.1250 kg/ha, preemergence): 7.0 | ECHORC herbicidal rating ([1]; 0.2500 kg/ha, preemergence): 9.0 | CYPIR herbicidal rating (Cyperus iria; 0.0320 kg/ha, preemergence): 4.0 | CYPIR herbicidal rating (Cyperus iria; 0.0620 kg/ha, preemergence): 9.0 | CYPIR herbicidal rating (Cyperus iria; 0.1250 kg/ha, preemergence): 9.0 | CYPIR herbicidal rating (Cyperus iria; 0.2500 kg/ha, preemergence): 9.0 | CYPSE herbicidal rating ([2]; 0.0320 kg/ha, preemergence): 6.0 | CYPSE herbicidal rating ([2]; 0.0620 kg/ha, preemergence): 7.0 | CYPSE herbicidal rating ([2]; 0.1250 kg/ha, preemergence): 9.0 | CYPSE herbicidal rating ([2]; 0.2500 kg/ha, preemergence): 9.0 | MOOVA herbicidal rating ([3]; 0.0320 kg/ha, preemergence): 7.0 | MOOVA herbicidal rating ([3]; 0.0620 kg/ha, preemergence): 9.0 | MOOVA herbicidal rating ([3]; 0.1250 kg/ha, preemergence): 9.0 | MOOVA herbicidal rating ([3]; 0.2500 kg/ha, preemergence): 9.0 | SAGPY herbicidal rating (Sagittaria pygmaea, L.; 0.0320 kg/ha, preemergence): 6.0 | SAGPY herbicidal rating (Sagittaria pygmaea, L.; 0.0620 kg/ha, preemergence): 6.0 | SAGPY herbicidal rating (Sagittaria pygmaea, L.; 0.1250 kg/ha, preemergence): 9.0 | SAGPY herbicidal rating (Sagittaria pygmaea, L.; 0.2500 kg/ha, preemergence): 9.0 | ORYSAT herbicidal rating (rice tolerance) ([4]; 0.0320 kg/ha): 7.0 | ORYSAT herbicidal rating (rice tolerance) ([4]; 0.0620 kg/ha): 9.0 | ORYSAT herbicidal rating (rice tolerance) ([4]; 0.1250 kg/ha): 9.0 | ORYSAT herbicidal rating (rice tolerance) ([4]; 0.2500 kg/ha): 9.0

Cn1c(C(F)(F)F)cc(=O)n(-c2ccc3snc(C(=O)O)c3c2)c1=O [Example 315, 1,2-Benzisothiazole-3-carboxylic acid, 5-[3,6-dihydro-3-methyl-2,6-dioxo-4-(trifluoromethyl)-1(2H)-pyrimidinyl]-]
herbicidal effect rating, ECHORC [1, 5]: 0.0 | herbicidal effect rating, ECHORC [1, 6]: 0.0 | herbicidal effect rating, ECHORC [1, 7]: 0.0 | herbicidal effect rating, ECHORC [1, 8]: 3.0 | herbicidal effect rating, CYPIR (Cyperus iria; [5]): 0.0 | herbicidal effect rating, CYPIR (Cyperus iria; [6]): 0.0 | herbicidal effect rating, CYPIR (Cyperus iria; [7]): 5.0 | herbicidal effect rating, CYPIR (Cyperus iria; [8]): 9.0 | herbicidal effect rating, CYPSE [2, 5]: 0.0 | herbicidal effect rating, CYPSE [2, 6]: 0.0 | herbicidal effect rating, CYPSE [2, 7]: 3.0 | herbicidal effect rating, CYPSE [2, 8]: 3.0 | herbicidal effect rating, MOOVA [3, 5]: 9.0 | herbicidal effect rating, MOOVA [3, 6]: 9.0 | herbicidal effect rating, MOOVA [3, 7]: 9.0 | herbicidal effect rating, MOOVA [3, 8]: 9.0 | herbicidal effect rating, SAGPY (Sagittaria pygmaea, L.; [5]): 0.0 | herbicidal effect rating, SAGPY (Sagittaria pygmaea, L.; [6]): 0.0 | herbicidal effect rating, SAGPY (Sagittaria pygmaea, L.; [7]): 3.0 | herbicidal effect rating, SAGPY (Sagittaria pygmaea, L.; [8]): 4.0 | herbicidal effect rating ORYSAT ([4]; Rate 0.0320 kg/ha): 0.0 | herbicidal effect rating ORYSAT ([4]; Rate 0.0620 kg/ha): 0.0 | herbicidal effect rating ORYSAT ([4]; Rate 0.1250 kg/ha): 0.0 | herbicidal effect rating ORYSAT ([4]; Rate 0.2500 kg/ha): 2.0

CN(C)C(=O)c1nsc2ccc(-n3c(=O)cc(C(F)(F)F)n(C)c3=O)cc12 [Example 329, 1,2-Benzisothiazole-3-carboxamide, 5-[3,6-dihydro-3-methyl-2,6-dioxo-4-(trifluoromethyl)-1(2H)-pyrimidinyl]-N,N-dimethyl-]
herbicidal effect rating, ECHORC [1, 5]: 2.0 | herbicidal effect rating, ECHORC [1, 6]: 3.0 | herbicidal effect rating, ECHORC [1, 7]: 3.0 | herbicidal effect rating, ECHORC [1, 8]: 3.0 | herbicidal effect rating, CYPIR (Cyperus iria; [5]): 0.0 | herbicidal effect rating, CYPIR (Cyperus iria; [6]): 0.0 | herbicidal effect rating, CYPIR (Cyperus iria; [7]): 0.0 | herbicidal effect rating, CYPIR (Cyperus iria; [8]): 0.0 | herbicidal effect rating, CYPSE [2, 5]: 0.0 | herbicidal effect rating, CYPSE [2, 6]: 0.0 | herbicidal effect rating, CYPSE [2, 7]: 0.0 | herbicidal effect rating, CYPSE [2, 8]: 0.0 | herbicidal effect rating, MOOVA [3, 5]: 9.0 | herbicidal effect rating, MOOVA [3, 6]: 9.0 | herbicidal effect rating, MOOVA [3, 7]: 9.0 | herbicidal effect rating, MOOVA [3, 8]: 9.0 | herbicidal effect rating, SAGPY (Sagittaria pygmaea, L.; [5]): 3.0 | herbicidal effect rating, SAGPY (Sagittaria pygmaea, L.; [6]): 4.0 | herbicidal effect rating, SAGPY (Sagittaria pygmaea, L.; [7]): 4.0 | herbicidal effect rating, SAGPY (Sagittaria pygmaea, L.; [8]): 4.0 | herbicidal effect rating ORYSAT ([4]; Rate 0.0320 kg/ha): 3.0 | herbicidal effect rating ORYSAT ([4]; Rate 0.0620 kg/ha): 3.0 | herbicidal effect rating ORYSAT ([4]; Rate 0.1250 kg/ha): 3.0 | herbicidal effect rating ORYSAT ([4]; Rate 0.2500 kg/ha): 3.0

Cn1c(C(F)(F)F)cc(=O)n(-c2ccc3snc(CSCC(=O)O)c3c2)c1=O [Example 283, Acetic acid, {{{5-[3,6-dihydro-3-methyl-2,6-dioxo-4-(trifluoromethyl)-1(2H)-pyrimidinyl]-1,2-benzisothiazol-3-yl}methyl}thio}-]
ECHORC herbicidal effect rating [1, 9]: 0.0 | ECHORC herbicidal effect rating [1, 10]: 3.4 | ECHORC herbicidal effect rating [1, 11]: 3.4 | ECHORC herbicidal effect rating [1, 12]: 6.0 | ECHORC herbicidal effect rating [1, 13]: 6.0 | CYPIR herbicidal effect rating (Cyperus iria; [9]): 0.0 | CYPIR herbicidal effect rating (Cyperus iria; [10]): 4.0 | CYPIR herbicidal effect rating (Cyperus iria; [11]): 8.0 | CYPIR herbicidal effect rating (Cyperus iria; [12]): 9.0 | CYPIR herbicidal effect rating (Cyperus iria; [13]): 9.0 | CYPSE herbicidal effect rating [2, 13]: 0.0 | MOOVA herbicidal effect rating [3, 9]: 2.0 | MOOVA herbicidal effect rating [3, 10]: 8.0 | MOOVA herbicidal effect rating [3, 11]: 9.0 | MOOVA herbicidal effect rating [3, 12]: 9.0 | MOOVA herbicidal effect rating [3, 13]: 9.0 | SAGPY herbicidal effect rating (Sagittaria pygmaea, L.; [9]): 0.0 | SAGPY herbicidal effect rating (Sagittaria pygmaea, L.; [10]): 0.0 | SAGPY herbicidal effect rating (Sagittaria pygmaea, L.; [11]): 0.0 | SAGPY herbicidal effect rating (Sagittaria pygmaea, L.; [13]): 9.0 | ORYSAT herbicidal effect rating ([4]; Rate 0.0320 kg/ha): 2.0 | ORYSAT herbicidal effect rating ([4]; Rate 0.0620 kg/ha): 2.0 | ORYSAT herbicidal effect rating ([4]; Rate 0.1250 kg/ha): 4.0 | ORYSAT herbicidal effect rating ([4]; Rate 0.2500 kg/ha): 5.0 | ORYSAT herbicidal effect rating ([4]; Rate 0.5000 kg/ha): 4.0

Cn1c(C(F)(F)F)cc(=O)n(-c2ccc3snc(CCBr)c3c2)c1=O [Example 260, 2,4(1H,3H)-Pyrimidinedione, 3-[3-(2-bromoethyl)-1,2-benzisothiazol-5-yl]-1-methyl-6-(trifluoromethyl)-]
ECHORC herbicidal effect rating [1, 12]: 0.0 | CYPIR herbicidal effect rating (Cyperus iria; [12]): 0.0 | CYPSE herbicidal effect rating [2, 12]: 0.0 | MOOVA herbicidal effect rating [3, 12]: 0.0 | SAGPY herbicidal effect rating (Sagittaria pygmaea, L.; [12]): 0.0 | ORYSAT herbicidal effect rating ([4]; Rate 0.2500 kg/ha): 0.0

CN(C(=O)c1nsc2ccc(-n3c(=O)cc(C(F)(F)F)n(C)c3=O)cc12)S(C)(=O)=O [Example 367, 1,2-Benzisothiazole-3-carboxamide, 5-[3,6-dihydro-3-methyl-2,6-dioxo-4-(trifluoromethyl)-1(2H)-pyrimidinyl]-N-methyl-N-(methylsulfonyl)-]
herbicidal effect rating, ECHORC [1, 9]: 0.0 | herbicidal effect rating, ECHORC [1, 10]: 0.0 | herbicidal effect rating, ECHORC [1, 11]: 3.0 | herbicidal effect rating, ECHORC [1, 12]: 6.0 | herbicidal effect rating, CYPIR (Cyperus iria; [9]): 0.0 | herbicidal effect rating, CYPIR (Cyperus iria; [10]): 5.0 | herbicidal effect rating, CYPIR (Cyperus iria; [11]): 7.0 | herbicidal effect rating, CYPIR (Cyperus iria; [12]): 9.0 | herbicidal effect rating, CYPSE [2, 9]: 0.0 | herbicidal effect rating, CYPSE [2, 10]: 9.0 | herbicidal effect rating, CYPSE [2, 11]: 9.0 | herbicidal effect rating, CYPSE [2, 12]: 9.0 | herbicidal effect rating, MOOVA [3, 9]: 9.0 | herbicidal effect rating, MOOVA [3, 10]: 9.0 | herbicidal effect rating, MOOVA [3, 11]: 9.0 | herbicidal effect rating, MOOVA [3, 12]: 9.0 | herbicidal effect rating, SAGPY (Sagittaria pygmaea, L.; [9]): 0.0 | herbicidal effect rating, SAGPY (Sagittaria pygmaea, L.; [10]): 2.0 | herbicidal effect rating, SAGPY (Sagittaria pygmaea, L.; [11]): 5.0 | herbicidal effect rating, SAGPY (Sagittaria pygmaea, L.; [12]): 9.0 | herbicidal effect rating ORYSAT ([4]; Rate 0.0320 kg/ha): 0.0 | herbicidal effect rating ORYSAT ([4]; Rate 0.0620 kg/ha): 0.0 | herbicidal effect rating ORYSAT ([4]; Rate 0.1250 kg/ha): 5.0 | herbicidal effect rating ORYSAT ([4]; Rate 0.2500 kg/ha): 6.0
